Experimental data from patent publication US10865406B2, “ALS inhibitor herbicide tolerant Beta vulgaris mutants” (priority 2010, dated 2020).

Legend:
[1] = tested on: sugar beet calli (diploid genotype 7T9044); assay: cells; assay type: cell-based, Beta vulgaris
Procedure: Sugar beet cell cultures were initiated from seedlings of a diploid sugar beet genotype 7T9044 (as, for example, described by Alexander Dovzhenko, PhD Thesis, Title: “Towards plastid transformation in rapeseed (Brassica napus L.) and sugarbeet (Beta vulgaris L.)”, Ludwig-Maximilians-Universität München, Germany, 2001). Sugar beet seeds were immersed for 60 seconds in 70% ethanol, then rinsed twice in sterile water with 0.01% detergent and then incubated for 1-4 hours in 1% NaOCl bleach. Thereafter the seeds were washed 3 times with sterile H2O and the seeds were stored in sterile water overnight at 4° C. The embryos were then isolated using forceps and scalpel.
The freshly prepared embryos were immersed in 0.5% NaOCl for 30 min and then washed 3 times in sterile water. After the last washing step they were placed on hormone free MS agar medium (Murashige and Skoog (1962), Physiol. Plantarum, 15, 473-497). Those embryos which developed into sterile seedlings were used for the initiation of regenerable sugar beet cell cultures.
Cotyledons as well as hypocotyls were cut into 2-5 mm long segments and then cultivated on agar (0.8%) solidified MS medium containing either 1 mg/l Benzylaminopurine (BAP) or 0.25 mg/l Thidiazuron (TDZ). 4 weeks later the developing shoot cultures were transferred onto fresh agar medium of the same composition and then sub-cultured in monthly intervals. […]

[2] = tested on: SB574TL sugar beet cell colony; assay: Growth of selected mutant cell colony (clone SB574TL) on foramsulfuron medium; assay type: cell-based, Beta vulgaris; conditions: 3×10^−7 M and even 3×10^−6 M foramsulfuron
Description: When this callus type was exposed to 10^−9 M of the sulfonylurea foramsulfuron (CAS RN 173159-57-4), the cells survived, but produced less than 50% of the biomass of their siblings on medium devoid of the inhibitor. On medium containing 3×10^−8 M foramsulfuron no growth was detectable. For large scale mutant selection experiments 10^−7 M foramsulfuron was chosen. Surviving and growing cell colonies were numbered and transferred after 4-6 weeks onto fresh medium containing 3×10^−7 M of the inhibitor. One of these cell colonies was able to grow not only at this concentration of the inhibitor but even in presence of 3×10^−6 M of foramsulfuron. From this clone (SB574TL), shoots were regenerated in presence of the ALS-inhibitor herbicide and then the shoots were transferred to MS medium containing 0.05 mg/l Naphthalene acetic acid (NAA).
When this callus type was exposed to 10^−9 M of the ALS inhibitor herbicide foramsulfuron (belonging to the sulfonylurea subclass, see above), the cells survived, but produced less than 50% of the biomass of their siblings on medium devoid of the inhibitor. On medium containing 3×10^−8 M foramsulfuron no growth was detectable. For large scale mutant selection experiments, 10^−7 M foramsulfuron was chosen. Surviving and growing cell colonies were numbered and transferred after 4-6 weeks onto fresh medium containing 3×10^−7 M of the inhibitor. […]

[3] = tested on: regenerated plants from SB574TL cell culture; assay: Herbicide treatment of regenerated plants from the foramsulfuron tolerant cell culture (greenhouse); assay type: in vivo, Beta vulgaris; conditions: highest doses tested (range 7-70 g a.i./ha foramsulfuron, 1-10 g a.i./ha iodosulfuron-methyl-sodium, mixtures 7:1)
Description: (§1) Within 4-12 weeks the shoots formed roots and then they were transferred into sterile plant containers filled with wet, sterilized perlite, watered with half strength MS inorganic ingredients. Alternatively the plantlets were transferred directly from the agar solidified medium in a perlite containing soil mixture in the greenhouse. During the first 10-15 days after transfer into soil containing substrate the plants were kept in an environment with high air humidity. During and after they were weaned to normal greenhouse air humidity regimes the plants were kept in the greenhouse under artificial light (12 h) at 20+−3° C./15+−2° C. day/night temperatures.
(§2) 3-5 weeks later, the regenerated plants from the above obtained foramsulfuron tolerant cell culture (SB574TL) as well as from the wild type cell cultures were treated with foramsulfuron, iodosulfuron-methyl-sodium (CAS RN […]) and a mixture of both active ingredients. The herbicide doses tested were equivalent to 7-70 g a.i./ha for foramsulfuron and 1-10 g a.i./ha for iodosulfuron-methyl-sodium.

[4] = tested on: wild type sugar beet plants; assay: Herbicide treatment of regenerated plants from wild type cell cultures (greenhouse); assay type: in vivo, Beta vulgaris; conditions: lowest doses tested (range 7-70 g a.i./ha foramsulfuron, 1-10 g a.i./ha iodosulfuron-methyl-sodium, mixtures 7:1)
Description: as §1, §2

[5] = tested on: Beta vulgaris wild-type and W574L-mutant (SB574TL) ALS; assay: ALS enzyme activity measurements, E. coli expressed enzyme; assay type: biochemical; conditions: crude protein extract, from pI50-values
Procedure: The coding sequence of a Beta vulgaris wild-type and a mutant B. vulgaris plant is cloned into, for example, Novagen pET-32a(+) vectors and the vectors are transformed into, for example, Escherichia coli AD494 according to the instructions of the manufacturer. Bacteria are preferably grown at 37° C. in medium under selection pressure such as in LB-medium containing 100 mg/l carbenicillin and 25 mg/l kanamycin, are induced with, for example, 1 mM isopropyl-β-D-thiogalactopyranoside at an OD600 of preferably about 0.6, cultivated for about 16 hours at preferably 18° C. and harvested by centrifugation. Bacterial pellets are resuspended in 100 mM sodium phosphate buffer pH 7.0 containing 0.1 mM thiamine-pyrophosphate, 1 mM MgCl2, and 1 μM FAD at a concentration of 1 gram wet weight per 25 ml of buffer and disrupted by sonification. The crude protein extract obtained after centrifugation is used for ALS activity measurements.
ALS assays are then carried out in, for example, 96-well microtiter plates using a modification of the procedure described by Ray (1984), Plant Physiol., 75, 827-831. The reaction mixture contains preferably 20 mM potassium phosphate buffer pH 7.0, […], 0.45 mM thiamine-pyrophosphate, 0.45 mM MgCl2, 9 μM FAD, ALS enzyme and various concentrations of ALS inhibitors in a final volume of about 90 μl. […]

[6] = tested on: ALS in leaf extracts of wild type sugar beets and SB574TL; assay: ALS enzyme activity measurements from plant leaf extracts; assay type: biochemical, Beta vulgaris
Description: When plants are used, ALS activity is preferably determined in cell extracts or leaf extracts of wild type and B. vulgaris cell extracts or leaf extracts of the obtained mutant in the presence of various concentrations of ALS-inhibitor herbicides, preferably sulfonylurea herbicides or sulfonylamino-carbonyltriazolinone herbicides, more preferably in the presence of various concentrations of the ALS inhibitor herbicide “foramsulfuron”. ALS is thus preferably extracted from sugar beet leaves or sugar beet tissue cultures as described by Ray (1984) in Plant Physiol 75:827-831.
ALS was extracted from sugar beet leaves or sugar beet tissue cultures as described by Ray (1984), Plant Physiol 75:827-831.
ALS activity was determined in leaf extracts of wild type and sugar beets and leaf extracts of the obtained SB574TL in presence of various concentrations of foramsulfuron as described in Example 4.
In total, the mutant enzyme was at least 2000 times less sensitive against the ALS inhibitor foramsulfuron than the wild type enzyme.

| Compound | cell survival of callus ([1]; 10^−9 M foramsulfuron in medium) | viability at 0.001 µM ([1]; Beta vulgaris, read-out: biomass relative to siblings on medium devoid of the inhibitor) [%] | growth of mutant cell colony [2] | tolerance of regenerated plants to herbicide [3] | effect on wild type plants [4] | sensitivity of mutant enzyme relative to wild type enzyme (times less sensitive) [5] | sensitivity of mutant enzyme relative to wild type enzyme (times less sensitive) [6] |
| --- | --- | --- | --- | --- | --- | --- | --- |
| COc1cc(OC)nc(NC(=O)NS(=O)(=O)c2cc(NC=O)ccc2C(=O)N(C)C)n1 [foramsulfuron] | survived | < 50 | able to grow | tolerated even the highest herbicide doses | killed | at least 2000 times | at least 2000 times |
| COC(=O)c1ccc(I)cc1S(=O)(=O)[N-]C(=O)Nc1nc(C)nc(OC)n1.[Na+] [iodosulfuron-methyl-sodium] |  |  |  | tolerated even the highest herbicide doses | killed |  |  |
